Experimental data taken from ChEMBL document CHEMBL1201862, “PubChem BioAssay data set” (2004).
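Results reflect a 48-hour exposure of cells in 96-well plates to compound at five concentrations. Here, GI50 denotes the concentration required for 50% inhibition of growth.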 The source made the active and inactive calls. Cut-off read from the data, not from the text of the source: active = GI50 up to about 1.1 µM and inactive = higher.

How the values were obtained:
Test in all cases: growth of human tumour cells (NCI), 48 h
U-251 = tested on: U-251
RPMI-8226 = tested on: RPMI-8226
K562 = tested on: K562
NCI-H23 = tested on: NCI-H23
SF-268 = tested on: SF-268
OVCAR-4 = tested on: OVCAR-4
SNB-19 = tested on: SNB-19
EKVX = tested on: EKVX
SN12C = tested on: SN12C
SR = tested on: SR
MDA-N = tested on: MDA-N
HCT-15 = tested on: HCT-15
BT-549 = tested on: BT-549
OVCAR-5 = tested on: OVCAR-5
IGROV-1 = tested on: IGROV-1
SW-620 = tested on: SW-620
SK-OV-3 = tested on: SK-OV-3
A549 = tested on: A549
UACC-62 = tested on: UACC-62
HCC 2998 = tested on: HCC 2998
M14 = tested on: M14
DU-145 = tested on: DU-145
SK-MEL-2 = tested on: SK-MEL-2
HOP-62 = tested on: HOP-62
HL-60 = tested on: HL-60
PC-3 = tested on: PC-3
SF-539 = tested on: SF-539
HCT-116 = tested on: HCT-116
UO-31 = tested on: UO-31
HOP-92 = tested on: HOP-92
MOLT-4 = tested on: MOLT-4
MCF7 = tested on: MCF7
RXF 393 = tested on: RXF 393
A498 = tested on: A498
KM12 = tested on: KM12
CCRF-CEM = tested on: CCRF-CEM
SK-MEL-28 = tested on: SK-MEL-28
SNB-75 = tested on: SNB-75
LOX IMVI = tested on: LOX IMVI
TK-10 = tested on: TK-10
UACC-257 = tested on: UACC-257
MDA-MB-231 = tested on: MDA-MB-231
786-0 = tested on: 786-0
NCI-H460 = tested on: NCI-H460
OVCAR-3 = tested on: OVCAR-3
SK-MEL-5 = tested on: SK-MEL-5
COLO 205 = tested on: COLO 205
SF-295 = tested on: SF-295
T47D = tested on: T47D
ACHN = tested on: ACHN
Hs-578T = tested on: Hs-578T
HT-29 = tested on: HT-29
NCI/ADR-RES = tested on: NCI/ADR-RES
MDA-MB-435 = tested on: MDA-MB-435
CAKI-1 = tested on: CAKI-1
NCI-H226 = tested on: NCI-H226
OVCAR-8 = tested on: OVCAR-8
NCI-H522 = tested on: NCI-H522

c1ccc2c(c1)nc1n2CNC1
GI50 (U-251): > 100 µM (inactive) | GI50 (RPMI-8226): > 100 µM (inactive) | GI50 (K562): > 100 µM (inactive) | GI50 (NCI-H23): > 100 µM (inactive) | GI50 (SF-268): > 100 µM (inactive) | GI50 (OVCAR-4): > 100 µM (inactive) | GI50 (SNB-19): > 100 µM (inactive) | GI50 (EKVX): > 100 µM (inactive) | GI50 (SN12C): > 100 µM (inactive) | GI50 (SR): > 100 µM (inactive) | GI50 (MDA-N): > 100 µM (inactive) | GI50 (HCT-15): > 100 µM | GI50 (BT-549): > 100 µM (inactive) | GI50 (OVCAR-5): > 100 µM (inactive) | GI50 (IGROV-1): > 100 µM (inactive) | GI50 (SW-620): > 100 µM (inactive) | GI50 (SK-OV-3): > 100 µM (inactive) | GI50 (A549): > 100 µM (inactive) | GI50 (UACC-62): > 100 µM (inactive) | GI50 (HCC 2998): > 100 µM (inactive) | GI50 (M14): > 100 µM (inactive) | GI50 (DU-145): > 100 µM (inactive) | GI50 (SK-MEL-2): > 100 µM (inactive) | GI50 (HOP-62): > 100 µM (inactive) | GI50 (HL-60): > 100 µM (inactive) | GI50 (PC-3): > 100 µM (inactive) | GI50 (SF-539): > 100 µM (inactive) | GI50 (HCT-116): > 100 µM (inactive) | GI50 (UO-31): > 100 µM (inactive) | GI50 (HOP-92): > 100 µM (inactive) | GI50 (MOLT-4): > 100 µM (inactive) | GI50 (MCF7): > 100 µM (inactive) | GI50 (RXF 393): > 100 µM (inactive) | GI50 (A498): > 100 µM (inactive) | GI50 (KM12): > 100 µM (inactive) | GI50 (CCRF-CEM): > 100 µM (inactive) | GI50 (SK-MEL-28): > 100 µM (inactive) | GI50 (SNB-75): > 100 µM (inactive) | GI50 (LOX IMVI): > 100 µM (inactive) | GI50 (TK-10): > 100 µM (inactive) | GI50 (UACC-257): > 100 µM (inactive) | GI50 (MDA-MB-231): > 100 µM (inactive) | GI50 (786-0): > 100 µM (inactive) | GI50 (NCI-H460): 54.6 µM (inactive) | GI50 (OVCAR-3): > 100 µM (inactive) | GI50 (SK-MEL-5): > 100 µM (inactive) | GI50 (COLO 205): > 100 µM (inactive) | GI50 (SF-295): > 100 µM (inactive) | GI50 (T47D): > 100 µM (inactive) | GI50 (ACHN): > 100 µM (inactive) | GI50 (Hs-578T): > 100 µM (inactive) | GI50 (HT-29): > 100 µM (inactive) | GI50 (NCI/ADR-RES): > 100 µM (inactive) | GI50 (MDA-MB-435): > 100 µM (inactive) | GI50 (CAKI-1): > 100 µM (inactive)

O=P1(N(CCCl)CCCl)Oc2ccc(Cl)cc2Sc2c(ccc(Cl)c2Cl)O1 (stereo unspecified)
GI50 (U-251): 6.76 µM (inactive) | GI50 (RPMI-8226): 5.02 µM (inactive) | GI50 (K562): 3.47 µM (inactive) | GI50 (NCI-H226): 8.26 µM (inactive) | GI50 (NCI-H23): 4.27 µM (inactive) | GI50 (SF-268): 92.9 µM (inactive) | GI50 (OVCAR-4): 23.9 µM (inactive) | GI50 (EKVX): 8.57 µM (inactive) | GI50 (SN12C): 11.9 µM (inactive) | GI50 (SR): 2.99 µM (inactive) | GI50 (MDA-N): 7.91 µM (inactive) | GI50 (HCT-15): 5.18 µM | GI50 (BT-549): 29.1 µM (inactive) | GI50 (OVCAR-5): 27.4 µM (inactive) | GI50 (SW-620): 6.68 µM (inactive) | GI50 (SK-OV-3): 21.9 µM (inactive) | GI50 (A549): 3.78 µM (inactive) | GI50 (UACC-62): 17.1 µM (inactive) | GI50 (HCC 2998): 16.5 µM (inactive) | GI50 (M14): 17.8 µM (inactive) | GI50 (DU-145): 63.7 µM (inactive) | GI50 (SK-MEL-2): 9.68 µM (inactive) | GI50 (HOP-62): 16 µM (inactive) | GI50 (OVCAR-8): 8.71 µM (inactive) | GI50 (NCI-H522): 6.4 µM (inactive) | GI50 (HL-60): 4.1 µM (inactive) | GI50 (PC-3): 3.28 µM (inactive) | GI50 (SF-539): 23.3 µM (inactive) | GI50 (HCT-116): 4.97 µM (inactive) | GI50 (UO-31): 4.71 µM (inactive) | GI50 (HOP-92): 4.42 µM (inactive) | GI50 (MOLT-4): 3.96 µM (inactive) | GI50 (MCF7): 6.38 µM (inactive) | GI50 (RXF 393): 3.95 µM (inactive) | GI50 (A498): 22.2 µM (inactive) | GI50 (KM12): 4.99 µM (inactive) | GI50 (CCRF-CEM): 4.41 µM (inactive) | GI50 (SK-MEL-28): 11.5 µM (inactive) | GI50 (SNB-75): 18.8 µM (inactive) | GI50 (LOX IMVI): 14.6 µM (inactive) | GI50 (TK-10): 9.18 µM (inactive) | GI50 (UACC-257): 10.4 µM (inactive) | GI50 (MDA-MB-231): 12.3 µM (inactive) | GI50 (786-0): 8.13 µM (inactive) | GI50 (NCI-H460): 4.79 µM (inactive) | GI50 (OVCAR-3): 4.95 µM (inactive) | GI50 (SK-MEL-5): 5.02 µM (inactive) | GI50 (COLO 205): 8.18 µM (inactive) | GI50 (SF-295): 3.18 µM (inactive) | GI50 (T47D): 8.38 µM (inactive) | GI50 (ACHN): 7.41 µM (inactive) | GI50 (Hs-578T): 2.13 µM (inactive) | GI50 (HT-29): 7.29 µM (inactive) | GI50 (NCI/ADR-RES): 6.04 µM (inactive) | GI50 (MDA-MB-435): 7.1 µM (inactive) | GI50 (CAKI-1): 15.2 µM (inactive)
